Source: patent US20100330588A1, “METHOD TO QUANTIFY METHYLTRANSFERASE ACTIVITY” (Utah State University, priority 2009, published 2010)

Tested on: Histone H3.3
Experiment: methylation of Histone H3.3 by PRMT6 fusion proteins, reverse phase resin method of scheme 2
Format: biochemical
Conditions: 500 nM enzyme; 1.7 μM Histone H3.3; 37° C.
Procedure: Assays were performed at 37° C., in a final volume of 125 μl. Each assay contained 1.0 μM unlabeled S-adenosyl-L-methionine (AdoMet), […] S-adenosyl-L-[methyl-^3H]methionine (specific activity 67.3 Ci/mmol, 0.55 μCi/μl, Perkin Elmer), 100 mM Hepes, 0.38 μM bovine serum albumin (BSA), 10% glycerol, 10 nM AdoHcy Nucleosidase (MTAN), and 1.7 μM protein substrate; pH of reaction was 7.6. […] Samples (10 μL) were removed at specified times and were analyzed using either SDS-PAGE or methods related to the present disclosure, as discussed below.
A 10 µL aliquot of the reaction mixture was transferred to 6 μl of sample preparation buffer (8 M Guanidine-HCL in 2.5% trifluoroacetic acid (TFA)), making the final concentrations 3 M Guanidine-HCL and 0.94% TFA in the mixture. Guanidine-HCl denatures the protein and TFA makes the reaction very acidic so that PRMT activity is quenched. […] Eluate was dispensed into 20 ml of scintillation cocktail (Fisher Scientific) and counted in a LSC.
Referring now to FIG. 4, there is shown the comparison of the methylation activities of GST-PRMT6 and His-PRMT6 using the method disclosed in scheme 2. […] The reactions were processed and counted in scintillation cocktail.

For “His-PRMT6: His-tagged PRMT6 protein arginine methyltransferase expressed in E. coli BL21 and purified”, the “fold higher methylation activity compared to GST-PRMT6” value was 5 fold.
